Results from the kinase profiling compilation of Christmann-Franck et al. (2016).

Experiments:
Test in all cases: KINOMEscan competition binding
Conditions in all cases: compound 10.0 µM
[1] = target: BRAF (human) (UniProt P15056)
[2] = target: PIK3C2B (human) (UniProt O00750)
[3] = target: MAPK6 (human) (UniProt Q16659)
[4] = target: EPHA6 (human) (UniProt Q9UF33)
[5] = target: ALK (human) (UniProt Q9UM73)
[6] = target: BRSK2 (human) (UniProt Q8IWQ3)
[7] = target: KDR (human) (UniProt P35968)
[8] = target: NEK1 (human) (UniProt Q96PY6)
[9] = target: CSNK1A1L (human) (UniProt Q8N752)
CSNK1A1L (human), sequence (Q8N752 whole entry, looked up): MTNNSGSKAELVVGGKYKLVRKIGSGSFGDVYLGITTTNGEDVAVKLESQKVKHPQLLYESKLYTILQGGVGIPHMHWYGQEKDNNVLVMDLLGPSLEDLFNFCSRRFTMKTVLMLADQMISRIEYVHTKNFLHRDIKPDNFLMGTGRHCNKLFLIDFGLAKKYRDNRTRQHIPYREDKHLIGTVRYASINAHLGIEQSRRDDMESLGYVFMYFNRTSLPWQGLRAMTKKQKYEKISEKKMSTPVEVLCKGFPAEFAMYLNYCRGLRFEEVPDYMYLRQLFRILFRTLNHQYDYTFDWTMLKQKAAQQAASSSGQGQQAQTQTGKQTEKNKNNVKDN

[10] = target: HIPK1 (human) (UniProt Q86Z02)
[11] = target: EPHB2 (human) (UniProt P29323)
[12] = target: JAK1 JH1 catalytic (human) (UniProt P23458)
[13] = target: STK10 (human) (UniProt O94804)
[14] = target: CHUK (human) (UniProt O15111)
[15] = target: CSNK1E (human) (UniProt P49674)
[16] = target: ROS1 (human) (UniProt P08922)
[17] = target: STK32B (human) (UniProt Q9NY57)
[18] = target: MAP3K11 (human) (UniProt Q16584)
MAP3K11 (human), sequence (Q16584 whole entry, looked up): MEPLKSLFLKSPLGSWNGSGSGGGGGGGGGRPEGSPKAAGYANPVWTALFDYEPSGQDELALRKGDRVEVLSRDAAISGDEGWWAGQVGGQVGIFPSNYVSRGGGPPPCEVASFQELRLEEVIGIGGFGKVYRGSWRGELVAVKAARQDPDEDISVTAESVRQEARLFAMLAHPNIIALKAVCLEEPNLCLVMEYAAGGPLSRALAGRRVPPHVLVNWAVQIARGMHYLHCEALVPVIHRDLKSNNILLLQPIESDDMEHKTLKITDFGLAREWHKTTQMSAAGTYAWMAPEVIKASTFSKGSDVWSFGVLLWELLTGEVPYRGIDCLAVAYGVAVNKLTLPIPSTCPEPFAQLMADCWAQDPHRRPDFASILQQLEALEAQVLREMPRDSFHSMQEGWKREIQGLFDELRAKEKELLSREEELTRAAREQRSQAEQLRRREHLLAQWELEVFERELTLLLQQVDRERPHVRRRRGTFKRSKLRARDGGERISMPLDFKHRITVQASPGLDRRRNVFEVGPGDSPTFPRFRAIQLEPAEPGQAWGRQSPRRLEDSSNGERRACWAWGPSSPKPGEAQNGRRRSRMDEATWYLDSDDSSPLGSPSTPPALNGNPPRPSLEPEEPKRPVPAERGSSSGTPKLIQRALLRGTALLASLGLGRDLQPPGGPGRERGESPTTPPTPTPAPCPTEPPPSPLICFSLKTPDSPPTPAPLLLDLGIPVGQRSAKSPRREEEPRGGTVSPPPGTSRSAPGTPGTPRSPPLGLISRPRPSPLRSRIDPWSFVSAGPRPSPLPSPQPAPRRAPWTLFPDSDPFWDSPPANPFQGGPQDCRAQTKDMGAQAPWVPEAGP

[19] = target: PRKG2 (human) (UniProt Q13237)
[20] = target: FLT4 (human) (UniProt P35916)
[21] = target: SIK3 (human) (UniProt Q9Y2K2)
[22] = target: RPS6KA4 KD1 (human) (UniProt O75676)
[23] = target: CDK4 CCND3 (human) (UniProt P11802+P30281)
CDK4 CCND3 (human), sequence (P11802 whole entry, looked up): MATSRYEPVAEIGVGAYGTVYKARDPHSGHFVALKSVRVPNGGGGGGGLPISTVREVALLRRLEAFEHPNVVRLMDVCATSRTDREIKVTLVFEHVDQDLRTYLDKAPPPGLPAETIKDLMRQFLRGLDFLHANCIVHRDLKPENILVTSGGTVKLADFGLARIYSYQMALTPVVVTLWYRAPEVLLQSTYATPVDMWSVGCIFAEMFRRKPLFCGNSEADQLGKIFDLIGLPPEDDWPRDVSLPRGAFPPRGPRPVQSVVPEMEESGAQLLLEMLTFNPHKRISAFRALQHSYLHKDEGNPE
CDK4 CCND3 (human), sequence (P30281 whole entry, looked up): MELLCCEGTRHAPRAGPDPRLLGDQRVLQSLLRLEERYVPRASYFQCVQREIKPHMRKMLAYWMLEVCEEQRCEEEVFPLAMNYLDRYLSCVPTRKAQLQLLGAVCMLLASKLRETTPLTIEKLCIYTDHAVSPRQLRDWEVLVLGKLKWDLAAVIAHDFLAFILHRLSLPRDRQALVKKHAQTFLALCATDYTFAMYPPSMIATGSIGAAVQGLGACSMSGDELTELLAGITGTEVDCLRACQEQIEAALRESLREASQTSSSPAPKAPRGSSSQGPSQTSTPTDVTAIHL

[24] = target: CDK7 (human) (UniProt P50613)
[25] = target: MAP3K13 (human) (UniProt O43283)
[26] = target: CAMK2A (human) (UniProt Q9UQM7)
CAMK2A (human), sequence (Q9UQM7 whole entry, looked up): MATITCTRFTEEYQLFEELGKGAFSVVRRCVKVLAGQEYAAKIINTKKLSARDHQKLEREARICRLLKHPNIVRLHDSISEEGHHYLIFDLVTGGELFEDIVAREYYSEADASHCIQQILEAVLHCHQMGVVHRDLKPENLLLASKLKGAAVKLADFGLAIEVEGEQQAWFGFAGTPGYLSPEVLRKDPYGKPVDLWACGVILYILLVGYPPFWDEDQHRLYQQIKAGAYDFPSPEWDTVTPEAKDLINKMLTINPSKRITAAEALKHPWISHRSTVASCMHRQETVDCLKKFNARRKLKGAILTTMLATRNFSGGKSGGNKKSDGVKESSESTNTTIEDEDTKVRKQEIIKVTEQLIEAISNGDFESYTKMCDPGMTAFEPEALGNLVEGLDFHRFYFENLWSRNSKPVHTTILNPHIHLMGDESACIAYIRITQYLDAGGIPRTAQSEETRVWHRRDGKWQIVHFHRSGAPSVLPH

[27] = target: CDK8 (human) (UniProt P49336)
CDK8 (human), sequence (P49336 whole entry, looked up): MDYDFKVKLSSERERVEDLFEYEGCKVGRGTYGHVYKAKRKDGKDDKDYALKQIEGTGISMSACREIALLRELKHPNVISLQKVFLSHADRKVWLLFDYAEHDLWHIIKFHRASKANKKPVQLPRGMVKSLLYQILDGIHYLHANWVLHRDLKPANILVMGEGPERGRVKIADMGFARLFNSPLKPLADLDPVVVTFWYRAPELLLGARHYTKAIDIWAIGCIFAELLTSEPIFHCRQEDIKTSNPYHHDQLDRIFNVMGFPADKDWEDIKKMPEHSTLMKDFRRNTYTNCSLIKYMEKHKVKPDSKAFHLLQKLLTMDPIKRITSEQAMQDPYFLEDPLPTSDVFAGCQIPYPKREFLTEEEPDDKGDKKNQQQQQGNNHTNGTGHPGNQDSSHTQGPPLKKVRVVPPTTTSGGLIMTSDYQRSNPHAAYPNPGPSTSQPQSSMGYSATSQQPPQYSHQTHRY

[28] = target: SGK3 (human) (UniProt Q96BR1)
[29] = target: DYRK1B (human) (UniProt Q9Y463)
[30] = target: PRKCE (human) (UniProt Q02156)
[31] = target: CDK19 (human) (UniProt Q9BWU1)
[32] = target: MAPK8 (human) (UniProt P45983)
[33] = target: MAP4K2 (human) (UniProt Q12851)
MAP4K2 (human), sequence (Q12851 whole entry, looked up): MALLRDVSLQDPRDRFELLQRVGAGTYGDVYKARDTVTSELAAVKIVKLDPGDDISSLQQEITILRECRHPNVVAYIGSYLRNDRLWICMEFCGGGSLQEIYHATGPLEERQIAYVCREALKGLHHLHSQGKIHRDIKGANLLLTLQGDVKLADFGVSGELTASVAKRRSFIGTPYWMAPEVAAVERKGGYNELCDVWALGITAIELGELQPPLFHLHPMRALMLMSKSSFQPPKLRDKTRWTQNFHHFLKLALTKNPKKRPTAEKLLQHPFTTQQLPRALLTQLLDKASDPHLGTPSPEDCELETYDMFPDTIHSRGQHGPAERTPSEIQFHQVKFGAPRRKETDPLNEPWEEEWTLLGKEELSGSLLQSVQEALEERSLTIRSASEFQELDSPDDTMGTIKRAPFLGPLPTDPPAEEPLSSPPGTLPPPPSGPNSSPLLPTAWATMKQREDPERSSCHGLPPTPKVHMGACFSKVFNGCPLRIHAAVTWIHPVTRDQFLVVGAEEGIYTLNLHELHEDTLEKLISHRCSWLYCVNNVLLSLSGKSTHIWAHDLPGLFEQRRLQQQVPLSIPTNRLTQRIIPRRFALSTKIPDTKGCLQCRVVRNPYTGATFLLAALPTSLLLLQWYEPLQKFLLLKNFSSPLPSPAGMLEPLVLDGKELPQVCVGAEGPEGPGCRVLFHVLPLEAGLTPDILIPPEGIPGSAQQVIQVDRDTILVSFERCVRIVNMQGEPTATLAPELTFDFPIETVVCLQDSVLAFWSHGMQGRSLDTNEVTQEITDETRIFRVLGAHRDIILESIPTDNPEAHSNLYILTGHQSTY

[34] = target: EGFR (human) (UniProt P00533)
[35] = target: MAP3K10 (human) (UniProt Q02779)
[36] = target: DDR2 (human) (UniProt Q16832)
[37] = target: PRKD2 (human) (UniProt Q9BZL6)
[38] = target: FLT1 (human) (UniProt P17948)
[39] = target: ERBB2 (human) (UniProt P04626)
[40] = target: ADCK4 (human) (UniProt Q96D53)
ADCK4 (human), sequence (Q96D53 whole entry, looked up): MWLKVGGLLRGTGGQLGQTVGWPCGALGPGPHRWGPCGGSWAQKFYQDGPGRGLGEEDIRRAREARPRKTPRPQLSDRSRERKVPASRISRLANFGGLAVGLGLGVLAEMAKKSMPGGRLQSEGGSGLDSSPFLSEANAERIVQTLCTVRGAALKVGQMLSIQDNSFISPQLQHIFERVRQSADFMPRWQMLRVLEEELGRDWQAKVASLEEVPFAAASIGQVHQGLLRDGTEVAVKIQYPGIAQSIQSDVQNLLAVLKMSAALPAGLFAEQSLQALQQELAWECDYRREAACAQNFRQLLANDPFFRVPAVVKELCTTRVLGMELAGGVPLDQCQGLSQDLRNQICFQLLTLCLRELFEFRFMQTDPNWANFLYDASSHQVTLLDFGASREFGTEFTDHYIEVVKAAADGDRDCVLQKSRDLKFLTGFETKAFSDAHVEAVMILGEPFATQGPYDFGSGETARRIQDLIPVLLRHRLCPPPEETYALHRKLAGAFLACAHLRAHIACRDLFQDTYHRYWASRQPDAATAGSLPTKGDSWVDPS

[41] = target: MAK (human) (UniProt P20794)
[42] = target: PKMYT1 (human) (UniProt Q99640)

BRAF (human), sequence (P15056 whole entry, looked up): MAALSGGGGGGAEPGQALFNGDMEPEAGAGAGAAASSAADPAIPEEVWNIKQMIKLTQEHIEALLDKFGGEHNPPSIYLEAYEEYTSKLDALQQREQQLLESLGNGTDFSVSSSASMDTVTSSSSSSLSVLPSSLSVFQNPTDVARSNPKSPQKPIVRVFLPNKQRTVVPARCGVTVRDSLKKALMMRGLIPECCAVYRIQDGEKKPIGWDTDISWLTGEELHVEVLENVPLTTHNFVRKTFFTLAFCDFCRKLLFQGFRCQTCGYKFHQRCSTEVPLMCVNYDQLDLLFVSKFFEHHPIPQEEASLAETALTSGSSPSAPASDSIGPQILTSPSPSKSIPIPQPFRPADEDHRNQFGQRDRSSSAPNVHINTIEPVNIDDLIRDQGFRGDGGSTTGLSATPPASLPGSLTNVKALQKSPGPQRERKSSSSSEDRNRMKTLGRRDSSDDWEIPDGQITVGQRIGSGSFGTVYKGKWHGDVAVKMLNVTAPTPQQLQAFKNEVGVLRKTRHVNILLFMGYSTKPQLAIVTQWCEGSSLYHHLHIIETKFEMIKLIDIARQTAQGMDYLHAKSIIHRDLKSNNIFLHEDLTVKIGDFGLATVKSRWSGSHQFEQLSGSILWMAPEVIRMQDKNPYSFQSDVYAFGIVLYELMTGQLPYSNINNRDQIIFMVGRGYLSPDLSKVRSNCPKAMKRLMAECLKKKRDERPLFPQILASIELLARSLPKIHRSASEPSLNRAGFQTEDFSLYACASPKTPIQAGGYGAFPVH

## Cc1cc([C@@H](C)Nc2ccccc2C(=O)O)c2nc(N3CCOCC3)cc(=O)n2c1
[1]
  kinase still bound, per cent of control: 74%
[2]
  kinase still bound, per cent of control: 1%
[3]
  kinase still bound, per cent of control: 78%
[4]
  kinase still bound, per cent of control: 100%
[5]
  kinase still bound, per cent of control: 100%
[6]
  kinase still bound, per cent of control: 94%
[7]
  kinase still bound, per cent of control: 100%
[8]
  kinase still bound, per cent of control: 100%
[9]
  kinase still bound, per cent of control: 94%
[10]
  kinase still bound, per cent of control: 87%
[11]
  kinase still bound, per cent of control: 100%
[12]
  kinase still bound, per cent of control: 70%
[13]
  kinase still bound, per cent of control: 71%
[14]
  kinase still bound, per cent of control: 69%
[15]
  kinase still bound, per cent of control: 92%
[16]
  kinase still bound, per cent of control: 84%
[17]
  kinase still bound, per cent of control: 100%
[18]
  kinase still bound, per cent of control: 95%
[19]
  kinase still bound, per cent of control: 100%
[20]
  kinase still bound, per cent of control: 100%
[21]
  kinase still bound, per cent of control: 87%
[22]
  kinase still bound, per cent of control: 93%
[23]
  kinase still bound, per cent of control: 62%
[24]
  kinase still bound, per cent of control: 90%
[25]
  kinase still bound, per cent of control: 100%
[26]
  kinase still bound, per cent of control: 66%
[27]
  kinase still bound, per cent of control: 100%
[28]
  kinase still bound, per cent of control: 100%
[29]
  kinase still bound, per cent of control: 100%
[30]
  kinase still bound, per cent of control: 100%
[31]
  kinase still bound, per cent of control: 100%
[32]
  kinase still bound, per cent of control: 100%
[33]
  kinase still bound, per cent of control: 97%
[34]
  kinase still bound, per cent of control: 100%
[35]
  kinase still bound, per cent of control: 96%
[36]
  kinase still bound, per cent of control: 100%
[37]
  kinase still bound, per cent of control: 97%
[38]
  kinase still bound, per cent of control: 96%
[39]
  kinase still bound, per cent of control: 96%
[40]
  kinase still bound, per cent of control: 95%
[41]
  kinase still bound, per cent of control: 100%
[42]
  kinase still bound, per cent of control: 99%
